Assay [1] deals with Hyperlipemia Model of SD Rat. The assay is described as follows: Screening in the hyperlipemia model of SD rat (fat emulsion by gavage; serum lipids). The class given is in vivo. Particulars: hyperlipemia SD rats, 40 mg/kg, dosed 21 days, X ± SD. How it is done: Materials and Methods for Screening with the Compounds Prepared in Experiment 1 to 21 in the Hyperlipemia Model of SD Rat
SD rats, male, 150-180 g, supplied by Shanghai Slaccas Laboratory Animal Company Limited.
Preparation of fat emulsion: 500 g lard oil was weighed and placed into a vessel, heated for melting, and upon heating up to the temperature of 100° C., 200 g cholesterol was added and fully dissolved, then 20 g propylthiouracil was added. After full stirring and dissolving, 500 ml Tween 80 was added to give an oil phase. Meanwhile, 600 ml distilled water and 400 ml 1,2-propylene glycol were heated to 60° C. in water bath, and then 40 g sodium deoxycholate was added with stirring, until full dissolution, to give an aqueous phase. The aqueous phase was added into the oil phase and fully and uniformly mixed, to prepare the fat emulsion.
Formulation of the solution for the compounds: an appropriate amount of compounds was triturated with appropriate amount of Tween 80 for homogeneous dispersion, and then sufficient CMC-Na solution was added and fully triturated, suspended to give the solution for the compounds.
The animals were fed for acclimation for 3 days, with 8 animals as blank control (Control) according to weight, and the rest was subject to intragastric administration of fat emulsion at 1 ml/100 g weight at A.M. 9:00-11:00 daily for continuous 2 weeks; the animals were fasted for 12 hours, and had 1 ml blood sampled at orbital cavity, which was measured with the Hitachi Automatic Biochemical Analyzer 7080 for serum cholesterol (CHO), triglyceride (TO), low-density lipoprotein (LDL-C) and high-density lipoprotein (HDL-C), with the animals having CHO of 4-7 mmol/L for experiment.
The animals dosed with fat emulsion for 2 weeks were divided into model group (Model), simvastatin group (Sim, 10 mg/kg) and compound group (40 mg/kg) according to weight, and continued to receive intragastric administration with fat emulsion; at the same time, the dosed group was administered with respective amount of drug, and the model group was administered with equal volume of solvent. Fat emulsion was dosed by gavage at A.M., and drug was dosed at P.M. The animals were weighed at Monday, and were observed. The animals were dosed for continuous 21 days, and fasted for 12 hours, with 1 ml blood sampling at orbital cavity. The liver was exposed and observed for pathologic condition; after slicing and weighing, it was fixed into the 4% formaldehyde solution for pathologic examination.
The Hitachi Automatic Biochemical Analyzer 7080 was used to measure serum cholesterol (CHO), triglyceride (TG), low-density lipoprotein (LDL-C) and high-density lipoprotein (HDL-C).
Laboratory data were expressed as X±SD (Standard Deviation), and comparison between groups was carried out by t-testing.

In assay [2] the test system is Cholelithiasis Model of Golden Hamster. The assay is described as follows: Screening in the cholelithiasis model of golden hamster (biochemical measurement of bile). Type of assay: in vivo, golden hamsters. Conditions: 40 mg/kg, dosed 45 days, X ± SD. The protocol:
Screening with the Compounds Prepared in Experiment 1 to 21 in the Cholelithiasis Model of Golden Hamster
68 male golden hamsters, 50-60 g, supplied by Shanghai Slaccas Laboratory Animal Company Limited.
The animals were fed for acclimation for 3 days, with 8 animals as blank control (Control) according to weight. The control was dosed with normal rat feedstuff, and the rest was dosed with feedstuff leading to cholelithiasis (sucrose 32.1%, cheese 64.2%, cholesterol 0.2%, salt 3%, vitamin B1 […], concentrated fish liver oil 0.4%). The animals were fed for acclimation for another 7 days, and divided into model group (Model), simvastatin group (Sim, 10 mg/kg), Ursodesoxycholic acid group (UDCA, 40 mg/kg), and compound group, n=6/group.
[…] 2:00-3:00 daily. The animals were weighed at Monday, and observed for hair color, stool, and variation of activation level.
The animals were dosed for continuous 45 days and then fasted for 12 hours; were anesthetized with 30 mg/kg sodium secobarbital via intraperitoneal injection; had 1 ml blood sampled via abdominal aorta; had gallbladder exposed, with an orifice on the gallbladder being clamped by the ophthalmological pliers and bile in the gallbladder being sucked with 1 ml syringe.
The Hitachi Automatic Biochemical Analyzer 7080 was used to measure cholesterol (CHO), total total bilirubin (TBIL), total bile acid (TBA) and total protein (TP) in bile.
Laboratory data was expressed as X±SD, and comparison of measurement data between groups was carried out by t-testing, with non-parametric testing for enumeration data.

For the compound `Cc1cc(C(=O)CCNC(=O)C(C)(CCCOc2cc(Cl)ccc2C)C(C)C)ccc1O` (stereo not drawn) [Compound 15], in assay [1], the “CHO1 Concentration (serum cholesterol)” value is listed as 15.00 ± 2.75 mmol/L, the “HDL-C Concentration (serum high-density lipoprotein)” value (“HDL-C Concentration” below) is 1.89 ± 0.26 mmol/L, the “LDL-C Concentration (serum low-density lipoprotein)” value (shortened to “LDL-C Concentration”) turned out to be 14.04 ± 3.12 mmol/L and the “TG Concentration (serum triglyceride)” value is 1.34 ± 0.48 mmol/L.
Consider `CC(C)(Oc1ccc(CCNC(=O)c2ccc(Cl)cc2)cc1)C(=O)NCC(=O)c1ccc(OC(=O)C(C)(C)Oc2ccc(CCNC(=O)c3ccc(Cl)cc3)cc2)cc1` [Compound 02], for which, in assay [1], the “CHO1 Concentration (serum cholesterol)” value is recorded as 17.29 ± 3.23 mmol/L, the “HDL-C Concentration” value is given as 1.68 ± 0.38 mmol/L, the “LDL-C Concentration” value was 16.01 ± 2.99 mmol/L and the “TG Concentration (serum triglyceride)” value was determined as 0.68 ± 0.18 mmol/L.
In the case of `Cc1ccc(C)c(OCCCC(C)(C)C(=O)NC2CCC(C(=S)c3ccc(O)cc3)CC2)c1` (stereo not drawn) [Compound 18], in assay [1], the “CHO1 Concentration (serum cholesterol)” value stood at 15.04 ± 2.73 mmol/L, the “HDL-C Concentration” value came out at 1.56 ± 0.51 mmol/L, the “LDL-C Concentration” value amounted to 13.47 ± 3.68 mmol/L and the “TG Concentration (serum triglyceride)” value turned out to be 1.25 ± 0.33 mmol/L.
Regarding `C[C@H](CCC(=O)O)[C@H]1CC[C@H]2[C@@H]3[C@@H](O)C[C@@H]4C[C@H](O)CC[C@]4(C)[C@H]3CC[C@]12C` [Ursodesoxycholic acid, reference compound], in assay [2], the “Cholesterol (CHO) in bile” value amounted to 0.98 ± 0.47 mmol/L, the “Total bile acid (TBA) in bile” value was 12.23 ± 3.04 mmol/L, the “Total protein (TP) in bile” value is recorded as 28.63 ± 10.37 g/L and the “Total total bilirubin (TBIL) in bile” value was 89.4 ± 45.3 µmol/L.
Take `Cc1ccc(C)c(OCCCC(C)(C)C(=O)NCC(=O)c2cc(O)cc(O)c2)c1` [Compound 19]: in assay [1], the “CHO1 Concentration (serum cholesterol)” value is recorded as 11.12 ± 1.01 mmol/L, the “HDL-C Concentration” value was determined as 1.36 ± 0.66 mmol/L, the “LDL-C Concentration” value is given as 10.76 ± 1.25 mmol/L and the “TG Concentration (serum triglyceride)” value came to 0.94 ± 0.06 mmol/L.
Regarding `Cc1ccc(C)c(OCCCC(C)(C)C(=O)NCC(=N)c2ccc(O)c(Cl)c2)c1` [Compound 17], in assay [1], the “CHO1 Concentration (serum cholesterol)” value came out at 10.54 ± 3.23 mmol/L, the “HDL-C Concentration” value stood at 1.82 ± 0.22 mmol/L, the “LDL-C Concentration” value was 8.13 ± 3.46 mmol/L and the “TG Concentration (serum triglyceride)” value turned out to be 0.88 ± 0.28 mmol/L.
On the same counts, the results for `CC(C)(Oc1ccc(C2CC2(Cl)Cl)cc1)C(=O)NCC(=O)c1ccc(OC(=O)C(C)(C)Oc2ccc(C3CC3(Cl)Cl)cc2)cc1` (stereo not drawn) [Compound 08] are 12.92 ± 2.10 mmol/L, 2.12 ± 0.27 mmol/L, 11.41 ± 1.90 mmol/L and 0.83 ± 0.13 mmol/L.
Consider `CC(C)(Oc1ccc(Cl)cc1)C(=O)NCC(=O)c1ccc(OC(=O)C(C)(C)Oc2ccc(Cl)cc2)cc1` [Compound 10], for which, in assay [1], the “CHO1 Concentration (serum cholesterol)” value is reported as 9.73 ± 1.79 mmol/L, the “HDL-C Concentration” value is on record as 2.66 ± 0.24 mmol/L, the “LDL-C Concentration” value is reported as 8.27 ± 1.46 mmol/L and the “TG Concentration (serum triglyceride)” value is 0.94 ± 0.15 mmol/L.
As for `CC(C)(Oc1ccc(C(=O)c2ccc(Cl)cc2)cc1)C(=O)NCC(=O)c1ccc(O)cc1` [Compound 03], in assay [1], the “CHO1 Concentration (serum cholesterol)” value is on record as 12.63 ± 2.77 mmol/L, the “HDL-C Concentration” value worked out at 1.54 ± 0.20 mmol/L, the “LDL-C Concentration” value is 11.11 ± 2.45 mmol/L and the “TG Concentration (serum triglyceride)” value stood at 0.99 ± 0.18 mmol/L.
As to `CCC(C)(Oc1ccc(C2(c3ccc(OC(C)(CC)C(=O)NCC(=O)c4ccc(O)cc4)cc3)CCCCC2)cc1)C(=O)NCC(=O)c1ccc(O)cc1` (stereo not drawn) [Compound 12], in assay [1], the “CHO1 Concentration (serum cholesterol)” value is 20.17 ± 1.27 mmol/L, the “HDL-C Concentration” value came to 1.895 ± 0.39 mmol/L, the “LDL-C Concentration” value is listed as 19.31 ± 1.52 mmol/L and the “TG Concentration (serum triglyceride)” value is 0.75 ± 0.25 mmol/L.
Take `CC(C)(Oc1ccc(C2CC2(Cl)Cl)cc1)C(=O)NCC(=O)c1ccc(O)cc1` (stereo not drawn) [Compound 07]: in assay [1], the “CHO1 Concentration (serum cholesterol)” value was determined as 14.99 ± 1.45 mmol/L, the “HDL-C Concentration” value is 1.74 ± 0.46 mmol/L, the “LDL-C Concentration” value worked out at 13.90 ± 1.21 mmol/L and the “TG Concentration (serum triglyceride)” value was 1.39 ± 0.16 mmol/L.
The corresponding values for `Cc1ccc(C)c(OCCCC(C)(C)C(=O)NCC(=O)c2ccc(OC(=O)C(C)(C)CCCOc3cc(C)ccc3C)cc2)c1` [Compound 06] are 16.37 ± 2.26 mmol/L, 1.49 ± 0.29 mmol/L, 15.78 ± 2.00 mmol/L and 1.53 ± 0.16 mmol/L.
For `CCC(CC)(CCCOc1cc(C)cc(C)c1)C(=O)NCC(=O)c1cccc(O)c1` [Compound 13], in assay [1], the “CHO1 Concentration (serum cholesterol)” value is 20.17 ± 1.27 mmol/L, the “HDL-C Concentration” value came to 1.895 ± 0.39 mmol/L, the “LDL-C Concentration” value was found to be 19.31 ± 1.52 mmol/L and the “TG Concentration (serum triglyceride)” value is reported as 0.75 ± 0.25 mmol/L.
The corresponding values for `CC(C)(Oc1ccc(C(=O)c2ccc(Cl)cc2)cc1)C(=O)NCC(=O)c1ccc(OC(=O)C(C)(C)Oc2ccc(C(=O)c3ccc(Cl)cc3)cc2)cc1` [Compound 04] are 10.02 ± 1.80 mmol/L, 1.82 ± 0.19 mmol/L, 9.84 ± 1.37 mmol/L and 1.15 ± 0.12 mmol/L.
The corresponding values for `COc1ccc(OCCCC(C)(C)C(=O)NCC(=O)c2ccc(O)c(C)c2)cc1C` [Compound 14] are 20.66 ± 3.23 mmol/L, 2.25 ± 0.22 mmol/L, 20.78 ± 3.46 mmol/L and 0.99 ± 0.28 mmol/L.
Take `CC(C)(Oc1ccc(CCNC(=O)c2ccc(Cl)cc2)cc1)C(=O)NCC(=O)c1ccc(O)cc1` [Compound 01]: in assay [1], the “CHO1 Concentration (serum cholesterol)” value is 14.84 ± 1.06 mmol/L, the “HDL-C Concentration” value is reported as 1.56 ± 0.25 mmol/L, the “LDL-C Concentration” value was 13.90 ± 1.23 mmol/L and the “TG Concentration (serum triglyceride)” value is on record as 0.66 ± 0.13 mmol/L.
Consider `Cc1ccc(C)c(OCCCC(C)(C)C(=O)NCC(=O)c2ccc(O)cc2)c1` [Compound 05], for which, in assay [1], the “CHO1 Concentration (serum cholesterol)” value worked out at 15.30 ± 2.45 mmol/L, the “HDL-C Concentration” value is recorded as 1.54 ± 0.24 mmol/L, the “LDL-C Concentration” value turned out to be 14.38 ± 2.12 mmol/L and the “TG Concentration (serum triglyceride)” value was 1.31 ± 0.15 mmol/L.
On the same counts, the results for `CC(C)(Oc1ccc(Cl)cc1)C(=O)NCC(=O)c1ccc(O)cc1` [Compound 09] are 13.64 ± 2.14 mmol/L, 2.18 ± 0.22 mmol/L, 11.64 ± 2.00 mmol/L and 0.95 ± 0.14 mmol/L.

The values are drawn from patent publication US10428013B2, “Amide compound, preparation method and uses thereof” (Shanghai Institute of Phamaceutical Industry, priority 2011, dated 2019).
